Reference: US8076487B2, “Pyridone derivative and herbicide” (Kumiai Chemical Industry Co., Ltd., priority 2006, dated 2011)

Experiments:
Format in all cases: in vivo
[1] = test system: Japanese bulrush (Scirpus juncoides Roxb.); experiment: Test Example 1: herbicidal effect by soil application to paddy field; conditions: paddy field soil application; active ingredient 1,000 g per 1 hectare; wettable powder added dropwise to water surface the day after sowing; examined on the 21st day after application
Outline: (§1)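 Plants were sown in flooded (3 cm) paddy soil and evaluated for herbicidal effect 21 days after soil application in a greenhouse.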

[2] = test system: early watergrass (Echinochloa oryzicola Vasing); experiment: as above; conditions: paddy field soil application; active ingredient 1,000 g per 1 hectare; wettable powder added dropwise to water surface the day after sowing; examined on the 21st day after application
Outline: as §1

[3] = test system: heartshape false pickerelweed (Monochoria vaginalis (Burm.f.) C.Presl); experiment: as above; conditions: paddy field soil application; active ingredient 1,000 g per 1 hectare; wettable powder added dropwise to water surface the day after sowing; examined on the 21st day after application
Outline: as §1

[4] = test system: barnyardgrass (Echinochloa crus-galli (L.) P. Beauv. var. crus-galli); experiment: Test Example 2: herbicidal effect by soil application to upland field; conditions: soil surface spray, upland field soil, 1,000 g active ingredient per hectare, 21st day after application
Outline: (§2)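 Pre-emergence soil test: seeds sown in pots of field soil, then wettable-powder formulation sprayed on soil surface at 1,000 g active ingredient per hectare in 1,000 L water per hectare. Plants grown in greenhouse; herbicidal effect scored on a standard scale at day 21.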

[5] = test system: green foxtail (Setaria viridis (L.) P. Beauv.); experiment: as above; conditions: soil surface spray, upland field soil, 1,000 g active ingredient per hectare, 21st day after application
Outline: as §2

[6] = test system: slender amaranth (Amaranthus viridis L.); experiment: as above; conditions: soil surface spray, upland field soil, 1,000 g active ingredient per hectare, 21st day after application
Outline: as §2

[7] = test system: velvetleaf (Abutilon theophrasti medicus); experiment: as above; conditions: soil surface spray, upland field soil, 1,000 g active ingredient per hectare, 21st day after application
Outline: as §2

[8] = test system: barnyardgrass (Echinochloa crus-galli (L.) P. Beauv. var. crus-galli); experiment: Test Example 3: herbicidal effect by application to upland field (foliage treatment); conditions: 14th day after application; for herbicidal effect (index), Barnyardgrass: foliage treatment, plants grown two weeks, 1,000 g active ingredient per hectare
Outline: (§3)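 Post-emergence spray at 1,000 g AI/ha of wettable powder in water (1,000 L/ha), onto seedlings grown 2 weeks in greenhouse field-soil pots. Graded day 14.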

[9] = test system: green foxtail (Setaria viridis (L.) P. Beauv.); experiment: as above; conditions: 14th day after application; for herbicidal effect (index), Green Foxtail: foliage treatment, plants grown two weeks, 1,000 g active ingredient per hectare
Outline: as §3

[10] = test system: slender amaranth (Amaranthus viridis L.); experiment: as above; conditions: 14th day after application; for herbicidal effect (index), Slender Amaranth: foliage treatment, plants grown two weeks, 1,000 g active ingredient per hectare
Outline: as §3

[11] = test system: velvetleaf (Abutilon theophrasti medicus); experiment: as above; conditions: 14th day after application; for herbicidal effect (index), Velvetleaf: foliage treatment, plants grown two weeks, 1,000 g active ingredient per hectare
Outline: as §3

[12] = foliage treatment, 1,000 g active ingredient per 1 hectare, greenhouse

| SMILES | herbicidal effect, Scirpus juncoides Roxb. [1] | herbicidal effect, Echinochloa oryzicola Vasing [2] | herbicidal effect, Monochoria vaginalis (Burm. f.) C. Presl [3] | herbicidal effect (index), Barnyardgrass [4] | herbicidal effect (index), Green Foxtail [5] | herbicidal effect (index), Slender Amaranth [6] | herbicidal effect (index), Velvetleaf [7] | herbicidal effect (index), Barnyardgrass [8] | herbicidal effect (index), Green Foxtail [9] | herbicidal effect (index), Slender Amaranth [10] | herbicidal effect (index), Velvetleaf [11] | herbicidal effect, Barnyardgrass [8, 12] | herbicidal effect, Green Foxtail [9, 12] | herbicidal effect, Slender Amaranth [10, 12] | herbicidal effect, Velvetleaf [11, 12] |
| --- | --- | --- | --- | --- | --- | --- | --- | --- | --- | --- | --- | --- | --- | --- | --- |
| O=C1CCCC(O)=C1C(=O)c1ccc(C(F)(F)F)n(-c2cc([N+](=O)[O-])ccc2F)c1=O [I-107] | 5 (90% or more of herbicidal effect and crop phytotoxicity) | 5 (90% or more of herbicidal effect and crop phytotoxicity) | 5 (90% or more of herbicidal effect and crop phytotoxicity) | 5 (90% or more of herbicidal effect and crop phytotoxicity) | 5 (90% or more of herbicidal effect and crop phytotoxicity) | 5 (90% or more of herbicidal effect and crop phytotoxicity) | 5 (90% or more of herbicidal effect and crop phytotoxicity) | 5 (90% or more of herbicidal effect and crop phytotoxicity) | 3 (50 to less than 70% of herbicidal effect and crop phytotoxicity) | 5 (90% or more of herbicidal effect and crop phytotoxicity) | 5 (90% or more of herbicidal effect and crop phytotoxicity) |  |  |  |  |
| COc1cc(-n2c(C(F)(F)F)ccc(C(=O)C3=C(O)CCCC3=O)c2=O)ccc1Cl [I-108] | 5 (90% or more of herbicidal effect and crop phytotoxicity) | 5 (90% or more of herbicidal effect and crop phytotoxicity) | 5 (90% or more of herbicidal effect and crop phytotoxicity) | 5 (90% or more of herbicidal effect and crop phytotoxicity) | 4 (70 to less than 90% of herbicidal effect and crop phytotoxicity) | 5 (90% or more of herbicidal effect and crop phytotoxicity) | 5 (90% or more of herbicidal effect and crop phytotoxicity) | 5 (90% or more of herbicidal effect and crop phytotoxicity) | 5 (90% or more of herbicidal effect and crop phytotoxicity) | 5 (90% or more of herbicidal effect and crop phytotoxicity) | 5 (90% or more of herbicidal effect and crop phytotoxicity) |  |  |  |  |
| COc1ccc(-n2c(C(F)(F)F)ccc(C(=O)C3=C(O)CCCC3=O)c2=O)cc1F [I-109] | 5 (90% or more of herbicidal effect and crop phytotoxicity) | 4 (70 to less than 90% of herbicidal effect and crop phytotoxicity) | 5 (90% or more of herbicidal effect and crop phytotoxicity) | 5 (90% or more of herbicidal effect and crop phytotoxicity) | 5 (90% or more of herbicidal effect and crop phytotoxicity) | 5 (90% or more of herbicidal effect and crop phytotoxicity) | 5 (90% or more of herbicidal effect and crop phytotoxicity) |  |  |  |  | 5 (90% or more of herbicidal effect and crop phytotoxicity) | 4 (70 to less than 90% of herbicidal effect and crop phytotoxicity) | 5 (90% or more of herbicidal effect and crop phytotoxicity) | 5 (90% or more of herbicidal effect and crop phytotoxicity) |
